Experimental data: patent US20250059205A1, “Heterocyclic Compounds and Methods of Use” (AMGEN INC., priority 2021, published 2025)

Assays:
[1] = test system: Phosphorylation of ERK1/2 in A-427 cells; assay: Phospho-ERK1/2 MSD Assay (A-427 cells); type: cell-based; conditions: Homo sapiens, A-427, 2 h, 2 h treatment, read-out: p-ERK (A427 cells) IC50
In short: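 ERK1/2 phosphorylation measured by Meso Scale whole-cell lysate assay after A-427 cells were exposed to a titration of compound for 2 h at 37 °C.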

[2] = biological target: GDP-bound KRAS protein (aa 1-169), containing both G12D and C118A amino acid substitutions (Homo sapiens, UniProt P01116, C118A/G12D); assay: KRAS G12D Coupled Nucleotide Exchange Assay; type: biochemical; conditions: 2 h compound pre-incubation
Description: Following compound pre-incubation, purified SOS protein (aa 564-1049) and GTP (Roche 10106399001) were added to the assay wells and incubated for an additional 30 min. […] The assay plates were then read on a PerkinElmer EnVision Multilabel Reader, using AlphaScreen® technology, and data were analyzed using a 4-parameter logistic model to calculate IC50 values.

[3] = test system: Phosphorylation of ERK1/2 in AsPC-1 cells; assay: Phospho-ERK1/2 MSD Assay (AsPC-1 cells); type: cell-based; conditions: Homo sapiens, ASPC1, 2 h, 2 hours treatment, read-out: p-ERK (AsPC-1 cells) IC50
In short: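 Read-out: MSD electrochemiluminescent detection of phosphorylated ERK1/2 in whole-cell lysates, fitted to a 4-parameter logistic curve for IC50. Prior to lysis, AsPC-1 cells (25,000 per well) received a 2 h compound dose-response at 37 °C.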

[4] = biological target: His-tagged KRAS G12D protein (Homo sapiens, UniProt P01116, G12D); assay: KRAS G12D TR-FRET Assay; type: binding
His-tagged KRAS G12D protein, sequence (P01116 1-188 isoform P01116-2 G12D): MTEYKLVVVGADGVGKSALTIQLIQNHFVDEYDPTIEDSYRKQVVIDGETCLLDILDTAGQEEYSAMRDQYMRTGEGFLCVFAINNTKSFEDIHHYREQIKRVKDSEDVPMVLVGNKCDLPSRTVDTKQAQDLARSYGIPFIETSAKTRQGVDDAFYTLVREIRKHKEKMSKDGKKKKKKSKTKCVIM

GDP-bound KRAS protein (aa 1-169), containing both G12D and C118A amino acid substitutions, sequence (P01116 1-169 isoform P01116-2 G12D/C118A): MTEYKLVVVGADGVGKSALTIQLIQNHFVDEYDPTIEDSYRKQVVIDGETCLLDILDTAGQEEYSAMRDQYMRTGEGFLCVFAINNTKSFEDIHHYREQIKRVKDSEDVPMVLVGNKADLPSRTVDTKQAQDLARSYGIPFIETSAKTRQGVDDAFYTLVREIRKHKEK

SMILES | IC50 [1] [nM] | Avg 2 h Coupled Exchange IC50 [2] [nM] | IC50 [3] [nM] | IC50 [4] [nM]
Cc1c(-c2cc(O)cc3ccc(F)c(F)c23)ccc2c(N3C[C@@H]4CC[C@H]3CN4)nc(OC[C@@]34CCCN3C[C@H](F)C4)nc12 [Example 166, 4-(4-((1S,4S)-2,5-diazabicyclo[2.2.2]octan-2-yl)-2-(((2R,7aS)-2-fluorotetrahydro-1H-pyrrolizin-7a(5H)-yl)methoxy)-8-methylquinazolin-7-yl)-5,6-difluoronaphthalen-2-ol] | 4200 | 82 | 1530 | 94
Oc1cc(-c2ccc3c(N4C[C@@H]5CC[C@H]4CN5)nc(OC[C@@]45CCCN4C[C@H](F)C5)nc3c2F)c2c(F)c(F)ccc2c1 [Example 140, 4-(4-((1S,4S)-2,5-diazabicyclo[2.2.2]octan-2-yl)-8-fluoro-2-(((2R,7aS)-2-fluorotetrahydro-1H-pyrrolizin-7a(5H)-yl)methoxy)quinazolin-7-yl)-5,6-difluoronaphthalen-2-ol] | 11 | 1 | 70 | 2
Cc1c(-c2cc(O)cc3cccc(Cl)c23)ccc2c(N3C[C@H]4CC[C@@H](C3)N4)nc(OC[C@@]34CCCN3C[C@H](F)C4)nc12 [Example 57, 4-(4-((1R,5S)-3,8-diazabicyclo[3.2. 1]octan-3-yl)-2-(((2R,7aS)-2-fluorotetrahydro-1H-pyrrolizin-7a(5H)-yl)methoxy)-8-methylquinazolin-7-yl)-5-chloronaphthalen-2-ol] | 222 | 3 | 213 | 5
Nc1ccc(C(F)(F)F)c(-c2ccc3c(N4C[C@H]5CC[C@@H](C4)N5)nc(OC[C@@]45CCCN4C[C@H](F)C5)nc3c2F)n1 [Example 223, 6-(4-((1R,5S)-3,8-diazabicyclo[3.2.1]octan-3-yl)-8-fluoro-2-(((2R,7aS)-2-fluorotetrahydro-1H-pyrrolizin-7a(5H)-yl)methoxy)quinazolin-7-yl)-5-(trifluoromethyl) pyridin-2-amine] | 894 | 15 | 3030 | 44
CCc1c(F)ccc2cc(O)cc(-c3ccc4c(N5C[C@H]6CC[C@@H](C5)N6)nc(OCC(C)(C)O)nc4c3F)c12 [Example 131, 4-(4-((1R,5S)-3,8-diazabicyclo[3.2.1]octan-3-yl)-8-fluoro-2-(2-hydroxy-2-methylpropoxy)quinazolin-7-yl)-5-ethyl-6-fluoronaphthalen-2-ol] | 682 | 5 | 926 | 9
Fc1c(-c2cccc3cccc(Cl)c23)ccc2c(N3[C@@H]4CC[C@H]3CNC4)nc(OC[C@@]34CCCN3C[C@H](F)C4)nc12 [Example 24, 4-((1R,5S)-3,8-diazabicyclo[3.2. 1]octan-8-yl)-7-(8-chloronaphthalen-1-yl)-8-fluoro-2-(((2R,7aS)-2-fluorotetrahydro-1H-pyrrolizin-7a(5H)-yl)methoxy) quinazoline] | 3910 | 16 | 1390 | 31
CCc1cccc2cc(O)cc(-c3ccc4c(N5CCC6CCC(C5)N6)nc(OC[C@@]56CCCN5C[C@H](F)C6)nc4c3F)c12 (stereo partly drawn) [Example 154, 4-(4-(3,9-diazabicyclo[4.2.1]nonan-3-yl)-8-fluoro-2-(((2R,7aS)-2-fluorotetrahydro-1H-pyrrolizin-7a(5H)-yl)methoxy)quinazolin-7-yl)-5-ethylnaphthalen-2-ol] | 879 | 12 | 1030 | 13
CCc1c(F)ccc2cc(O)cc(-c3c(F)cc4c(N5C[C@H]6CC[C@@H](C5)N6)nc(OCC56CCCN5CC(F)(F)C6)nc4c3F)c12 (stereo partly drawn) [Example 128, 4-(4-((1R,5S)-3,8-diazabicyclo[3.2.1]octan-3-yl)-2-((2,2-difluorotetrahydro-1H-pyrrolizin-7a(5H)-yl)methoxy)-6,8-difluoroquinazolin-7-yl)-5-ethyl-6-fluoronaphthalen-2-ol] | 308 | 4 | 243 | 3
Oc1ccc(-c2c(Cl)cc3c(N4C[C@H]5CC[C@@H](C4)N5)nc(OC[C@@]45CCCN4C[C@H](F)C5)nc3c2F)c2ccccc12 [Example 80, 4-(4-((1R,5S)-3,8-diazabicyclo[3.2. 1]octan-3-yl)-6-chloro-8-fluoro-2-(((2R,7aS)-2-fluorotetrahydro-1H-pyrrolizin-7a(5H)-yl)methoxy)quinazolin-7-yl)naphthalen-1-ol] | 649 | 4 | 607 | 10
CN1C[C@H](F)C[C@H]1COc1nc(N2[C@@H]3CC[C@H]2CNC3)c2cc(F)c(-c3cc(O)cc4ccccc34)c(F)c2n1 [Example 17, 4-(4-((1R,5S)-3,8-diazabicyclo[3.2. 1]octan-8-yl)-6,8-difluoro-2-(((2S,4R)-4-fluoro-1-methylpyrrolidin-2-yl)methoxy)quinazolin-7-yl)naphthalen-2-ol] | 1290 | 17 | 949 | 26
N#Cc1cccc2cccc(-c3c(F)cc4c(N5C[C@H]6CC[C@@H](C5)N6)nc(OC[C@@]56CCCN5C[C@H](F)C6)nc4c3F)c12 [Example 60, 8-(4-((1R,5S)-3,8-diazabicyclo[3.2. 1]octan-3-yl)-6,8-difluoro-2-(((2R,7aS)-2-fluorotetrahydro-1H-pyrrolizin-7a(5H)-yl)methoxy)quinazolin-7-yl)-1-naphthonitrile] | 530 | 4 | 418 | 8
CCc1c(F)ccc2cc(O)cc(-c3c(F)cc4c(N5C[C@H]6CC[C@@H](C5)N6)nc(OC[C@@H]5CC(F)(F)CN5)nc4c3F)c12 [Example 217, 4-(4-((1R,5S)-3,8-diazabicyclo[3.2.1]octan-3-yl)-2-(((S)-4,4-difluoropyrrolidin-2-yl)methoxy)-6,8-difluoroquinazolin-7-yl)-5-ethyl-6-fluoronaphthalen-2-ol] | 218 | 4 | 414 | 4
CCc1cccc2cc(O)cc(-c3c(F)cc4c(N5C[C@H]6CC[C@@H](C5)N6)nc(OC[C@@]56CCCN5C[C@H](F)C6)nc4c3F)c12 [Example 147, 4-(4-((1R,5S)-3,8-diazabicyclo[3.2.1]octan-3-yl)-6,8-difluoro-2-(((2R,7aS)-2-fluorotetrahydro-1H-pyrrolizin-7a(5H)-yl)methoxy)quinazolin-7-yl)-5-ethylnaphthalen-2-ol] | 3 | 2 | 25 | 3
Oc1cc(-c2ccc3c(N4C[C@H]5CC[C@@H](C4)N5)nc(OC[C@]45CCCN4C[C@H](F)C5)nc3c2F)c2ccccc2c1 [Example 44, 4-(4-((1R,5S)-3,8-diazabicyclo[3.2. 1]octan-3-yl)-8-fluoro-2-(((2R,7aR)-2-fluorotetrahydro-1H-pyrrolizin-7a(5H)-yl)methoxy)quinazolin-7-yl)naphthalen-2-ol] | 19 | 2 | 114 | 2
CCc1c(F)ccc2cc(O)cc(-c3ccc4c(N5C[C@@H]6CC[C@H]5CN6)nc(OC[C@@]56CCCN5C[C@H](F)C6)nc4c3)c12 [Example 112, 4-(4-((1S,4S)-2,5-diazabicyclo[2.2.2]octan-2-yl)-2-(((2R,7aS)-2-fluorotetrahydro-1H-pyrrolizin-7a(5H)-yl)methoxy)quinazolin-7-yl)-5-ethyl-6-fluoronaphthalen-2-ol] | 37 | 2 | 90 | 2
CCc1cccc2cc(O)cc(-c3cc4nc(OC[C@@]56CCCN5C[C@H](F)C6)nc(N5C[C@H]6CC[C@@H](C5)N6)c4cc3F)c12 [Example 171, 4-(4-((1R,5S)-3,8-diazabicyclo[3.2.1]octan-3-yl)-6-fluoro-2-(((2R,7aS)-2-fluorotetrahydro-1H-pyrrolizin-7a(5H)-yl)methoxy)quinazolin-7-yl)-5-ethylnaphthalen-2-ol] | 42 | 3 | 169 | 6
Fc1cc2c(N3[C@@H]4CC[C@H]3CNC4)nc(OC[C@@]34CCCN3C[C@H](F)C4)nc2c(F)c1-c1cccc2cccc(Cl)c12 [Example 22, 4-((1R,5S)-3,8-diazabicyclo[3.2. 1]octan-8-yl)-7-(8-chloronaphthalen-1-yl)-6,8-difluoro-2-(((2R,7aS)-2-fluorotetrahydro-1H-pyrrolizin-7a(5H)-yl)methoxy) quinazoline] | 2660 | 14 | 2350 | 17
Oc1cc(-c2c(F)cc3c(N4[C@@H]5CNC[C@H]4COC5)nc(OC[C@@]45CCCN4C[C@H](F)C5)nc3c2F)c2ccccc2c1 [Example 14, 4-(4-((1R,5S)-3-oxa-7,9-diazabicyclo[3.3.1]nonan-9-yl)-6,8-difluoro-2-(((2R,7aS)-2-fluorotetrahydro-1H-pyrrolizin-7a(5H)-yl)methoxy)quinazolin-7-yl)naphthalen-2-ol] | 274 | 8 | 762 | 9
